Experimental data taken from publication PMC12656546, “Enterohepatic Recirculation-Mediated Reabsorption of Aristolochic Acid I: Revealed by Toxicokinetics and Metabolite Identification in Rats” (Toxics, 2025).
Values joined by “and” are separate entries in the source; they are usually repeats but may differ in a detail not shown here. Equal values may be shown once. Read-outs that look alike come from different tables or passages of the source.

Assay: Toxicokinetic study of AAI after single oral administration (plasma, UPLC-QQQ-MS/MS, NCA)
Format: in vivo, F344 rats
Settings: for tmax: read-out: tmax
Description: For toxicokinetic study, forty-eight […] F344 rats (specific pathogen-free grade) were enrolled in the study, with equal numbers of males and females. All rats were purchased from Charles River Laboratory (Raleigh, NC, USA). All rats were confirmed to be healthy based on a series of physical health examinations. Rats were acclimated for 5 days at a temperature of 20–26 °C, humidity of 40–70% and a 12 h light/dark circle. The rats were randomly divided into four groups (n = 12 per group), with equal numbers of males and females in each group. The allocation was performed separately for each sex (female and male) based on body weight using a stratified randomization method. During the experiment, rats were fasted and had access to water ad libitum. To minimize confounding factors, treatments and measurements were randomized within each session. Cages from different groups were evenly distributed across racks in the same room to reduce bias from light and temperature. This study was approved by the Institutional Animal Care and Use Committee (IACUC) of the National Drug Safety Evaluation Center (Approval No. IACUC-2024-K011, 20 September 2024).
During the experiment, each rat received a single oral administration via gastric gavage. Rats in the control group were administered with 0.5% sodium carboxymethyl cellulose (CMC-Na) suspension. For the treatment groups, rats were administered with gavage solution containing 10, 30 and 100 mg/kg of AAI. The gavage solution was prepared by uniformly dispersing the reference standard of AAI in the 0.5% CMC-Na solution. After oral administration, blood samples were collected from the postorbital vein plex of rats and immediately placed in EDTA tubes. To capture potential reabsorption which might occur long after AAI administration, 15 blood sampling time points were established for each dose group. A sparse sampling approach was employed to avoid excessive blood loss in each rat. For each dosage, 12 rats were subdivided into two groups. For the first group, blood samples were collected from 6 rats at 10, 30, 60, 90, 120, 240, 420, and 600 min after AAI administration; for the second group, blood samples were collected from these 6 rats at 12, 14, 16, 18, 20, 22, and 24 h after AAI administration. Therefore, the experimental design ensured that six biological replicates were obtained for each sampling time point, enabling robust toxicokinetic analysis.
Rat plasma samples were prepared as follows: Blood was centrifuged at 13,200 rpm for 10 min. Then, 25 μL of retrieved plasma was transferred to 2 mL centrifuge tubes, followed by the addition of 75 μL of methanol/acetonitrile solution (v/v, 1∶1) containing indomethacin as internal standard (IS). After vortexing for 2 min and centrifugation for 10 min at 13,200 rpm, the supernatant was used as study samples for quantitative analysis. Quality control samples (QCs) and calibration standards were prepared by spiking blank plasma with different concentrations of AAI standard solution. The QCs and calibration standards were processed using identical procedures as the study samples.
A method of ultra-performance liquid chromatography coupled with triple quadrupole tandem mass spectrometry (UPLC-QQQ-MS/MS) was developed to achieve the quantitation of AAI in rat plasma. The LC-MS/MS analysis was performed using an Acquity UPLC I-Class system coupled with an Xevo TQ XS spectrometer (Waters, Milford, MA, USA). An Acquity UPLC BEH C18 column (2.1 mm × 50 mm, 1.7 μm, Waters, Milford, MA, USA) was employed for chromatographic separation. The mobile phases consisted of water containing 5 mmol/L ammonium formate/0.1% formic acid (A) and acetonitrile (B). The gradient elution was set as follows: 1–4 min, 10–90% B; 4–5 min, 90% B; 5–5.01 min, 90–10% B; 5.01–7 min, 10% B. The flow rate was set at 0.4 mL/min. The column temperature was maintained at 40 °C. A sample volume of 2 μL was injected for analysis. […]

[1] = 10 mg/kg single oral, rat plasma, mean ± SD
[2] = 30 mg/kg single oral, rat plasma, mean ± SD
[3] = 100 mg/kg single oral, rat plasma, mean ± SD
[4] = both sexes, F344, rat, plasma, po, 10 mg/kg, 10 mg/kg single oral, rat plasma, mean ± SD
[5] = both sexes, F344, rat, plasma, po, 30 mg/kg, 30 mg/kg single oral, rat plasma, mean ± SD
[6] = both sexes, F344, rat, plasma, po, 30 mg/kg, medium-dose (30 mg/kg), individual pooled profiles (animal pairs), Table S4
[7] = both sexes, F344, rat, plasma, po, 100 mg/kg, 100 mg/kg single oral, rat plasma, mean ± SD
[8] = high-dose (100 mg/kg), individual pooled profiles (animal pairs), Table S4, 100 mg/kg

Q: Which CL/F [1] does the source give for `COc1cccc2c1cc([N+](=O)[O-])c1c(C(=O)O)cc3c(c12)OCO3` [AAI, Aristolochic acid I] here?
A: 1.66 ± 0.37 L/h

Q: What about the Vd [1] of the same compound?
A: 3.36 ± 1.97 L

Q: And the CL/F [2]?
A: 1.22 ± 0.30 L/h

Q: What about the Vd [2] of the same compound?
A: 4.67 ± 0.81 L

Q: And the CL/F [3]?
A: 1.13 ± 0.59 L/h

Q: And the Vd [3]?
A: 8.42 ± 7.24 L

Q: And the AUC(0-t) (F344, rat, plasma, po, 10 mg/kg, low-dose (10 mg/kg), individual pooled profiles (animal pairs), Table S4)?
A: 843 ng·h/mL

Q: What about the Cmax (F344, rat, plasma, po, 10 mg/kg, low-dose (10 mg/kg), individual pooled profiles (animal pairs), Table S4, read-out: Cmax) of the same compound?
A: 562 ng/mL

Q: What about the AUC(0-t) [4] of the same compound?
A: 969 ± 140 ng·h/mL

Q: What about the half-life [4] of the same compound?
A: 1.31 ± 0.51 h

Q: And the Cmax (both sexes, F344, rat, plasma, po, 10 mg/kg, 10 mg/kg single oral, rat plasma, mean ± SD, read-out: Cmax)?
A: 457 ± 129 ng/mL

Q: What about the tmax [4] of the same compound?
A: 0.69 ± 0.6 h

Q: What about the concentration at 14 h (both sexes, F344, rat, plasma, po, 10 mg/kg, low-dose (10 mg/kg oral), 14 h, individual rats M104,M105,M106,F104,F105,F106, below LLOQ set to zero) of the same compound?
A: 0 ng/mL

Q: What about the concentration at 16 h (both sexes, F344, rat, plasma, po, 10 mg/kg, low-dose (10 mg/kg oral), 16 h, individual rats M104,M105,M106,F104,F105,F106, below LLOQ set to zero) of the same compound?
A: 0 ng/mL

Q: And the concentration at 18 h (both sexes, F344, rat, plasma, po, 10 mg/kg, low-dose (10 mg/kg oral), 18 h, individual rats M104,M105,M106,F104,F105,F106, below LLOQ set to zero)?
A: 0 ng/mL

Q: And the concentration at 20 h (both sexes, F344, rat, plasma, po, 10 mg/kg, low-dose (10 mg/kg oral), 20 h, individual rats M104,M105,M106,F104,F105,F106, below LLOQ set to zero)?
A: 0 ng/mL

Q: What about the concentration at 22 h (both sexes, F344, rat, plasma, po, 10 mg/kg, low-dose (10 mg/kg oral), 22 h, individual rats M104,M105,M106,F104,F105,F106, below LLOQ set to zero) of the same compound?
A: 0 ng/mL

Q: What about the concentration at 24 h (both sexes, F344, rat, plasma, po, 10 mg/kg, low-dose (10 mg/kg oral), 24 h, individual rats M104,M105,M106,F104,F105,F106, below LLOQ set to zero) of the same compound?
A: 0 ng/mL

Q: What about the AUC(0-t) (both sexes, F344, rat, plasma, po, 10 mg/kg, low-dose (10 mg/kg), individual pooled profiles (animal pairs), Table S4) of the same compound?
A: 825 ng·h/mL

Q: What about the AUC(0-t) [5] of the same compound?
A: 3950 ± 543 ng·h/mL

Q: And the half-life [5]?
A: 2.79 ± 0.74 h

Q: And the Cmax (both sexes, F344, rat, plasma, po, 30 mg/kg, 30 mg/kg single oral, rat plasma, mean ± SD, read-out: Cmax)?
A: 2450 ± 561 ng/mL

Q: What about the tmax [5] of the same compound?
A: 0.58 ± 0.17 h

Q: What about the concentration at 1.5 h (both sexes, F344, rat, plasma, po, 30 mg/kg, medium-dose (30 mg/kg oral), 1.5 h, individual rats M201,M202,M203,F201,F202,F203) of the same compound?
A: 413 ng/mL

Q: What about the AUC(0-t) [6] of the same compound?
A: 3450 ng·h/mL

Q: What about the tmax [6] of the same compound?
A: 0.5 h

Q: And the AUC(0-t) [7]?
A: 17100 ng·h/mL

Q: What about the half-life [7] of the same compound?
A: 3.01 ± 0.45 h

Q: And the Cmax (both sexes, F344, rat, plasma, po, 100 mg/kg, 100 mg/kg single oral, rat plasma, mean ± SD, read-out: Cmax)?
A: 9110 ± 2180 ng/mL

Q: And the tmax [7]?
A: 1.17 ± 0.37 h

Q: What about the Cmax (both sexes, F344, rat, plasma, po, 100 mg/kg, high-dose (100 mg/kg), individual pooled profiles (animal pairs), Table S4, read-out: Cmax) of the same compound?
A: 9010 ng/mL

Q: What about the tmax (both sexes, F344, rat, plasma, po, 100 mg/kg, high-dose (100 mg/kg), individual pooled profiles (animal pairs), Table S4) of the same compound?
A: 2 h

Q: And the “secondary elevation of plasma AAI concentration, time post-administration” value (high- and medium-dose groups (100, 30 mg/kg oral))?
A: 14 to 24 h

Q: And the AUC0→t [8]?
A: 17484.11 ng·h/mL and 17260.39 ng·h/mL and 32135.80 ng·h/mL and 9262.46 ng·h/mL and 9698.81 ng·h/mL and 16821.21 ng·h/mL

Q: What about the CL/F [8] of the same compound?
A: 0.76 L/h and 0.74 L/h and 0.40 L/h and 2.04 L/h and 1.79 L/h and 1.07 L/h

Q: What about the Cmax [8] of the same compound?
A: 9980.23 ng/mL and 12351.60 ng/mL and 6490.96 ng/mL and 6245.89 ng/mL and 10563.14 ng/mL
